Data reported in the Biogen ADME set (Fang et al. 2023).
In brackets after ≈: the same amount, converted by molar mass.

Conditions: for aqueous solubility: pH 6.8

| SMILES | MDR1-MDCK efflux ratio | fraction unbound, human plasma | fraction unbound, rat plasma | intrinsic clearance, human liver microsomes | intrinsic clearance, rat liver microsomes | aqueous solubility |
| --- | --- | --- | --- | --- | --- | --- |
| CN1CCN(S(=O)(=O)c2ccc(-c3cnc(N)c(C(=O)Nc4cccnc4)n3)cc2)CC1 | 72.4 | 0.12 | 0.0823 | 124 mL/min/kg | 672 mL/min/kg |  |
| Cc1ccc(C)c2nc3c(cc12)CNCCO3 | 0.525 |  |  | 23.7 mL/min/kg | 234 mL/min/kg |  |
| CN(CCOc1ccccc1)CC(=O)NCCc1ccccc1 | 0.728 |  |  | 267 mL/min/kg | 5420 mL/min/kg |  |
| COc1nc2sc(C(=O)NC3CC3)c(N)c2c(C)c1Cl |  | 0.0176 | 0.0283 | 9.77 mL/min/kg | 133 mL/min/kg |  |
| CC(C)(C)Sc1c(CC(C)(C)C(=O)O)n(Cc2ccc(Cl)cc2)c2ccc(OCc3ccc4ccccc4n3)cc12 | 2.37 |  |  | 28.7 mL/min/kg | 142 mL/min/kg | 6.1 µg/mL (≈ 10.4 µM) |
| C[C@@H]1CC(=O)Nc2cccc(-c3ccc4c(c3)c(-c3cnn(C)c3)nn4C)c2N1 | 57.3 |  |  | 8.83 mL/min/kg | 46.5 mL/min/kg |  |
| Cc1cc(NC(=O)C2CCOCC2)sn1 | 0.91 |  |  | ≤ 4.74 mL/min/kg | ≤ 10.7 mL/min/kg | 56.5 µg/mL (≈ 250 µM) |
| O=C(CCCc1cc(Cl)sc1Cl)N1CC[C@H](O)C1 | 1.49 |  |  | 18.6 mL/min/kg | 506 mL/min/kg | 50 µg/mL (≈ 162 µM) |
| CCCn1ncc2[nH]c(C3CCCCC3)nc21 | 1.26 |  |  | 19.9 mL/min/kg | 83.7 mL/min/kg | 22.4 µg/mL (≈ 96.5 µM) |
| CC(C)(C)NC(=O)c1cncn1C1CCN(c2ccc(-c3nnc(C(F)(F)F)o3)cn2)CC1 | 8.45 |  |  | ≤ 4.74 mL/min/kg | 25.3 mL/min/kg | 61.1 µg/mL (≈ 132 µM) |
| COc1ccc2c(c1)CCCN(C(=O)NCCc1ccccn1)C2 |  |  |  | 174 mL/min/kg | 1400 mL/min/kg |  |
| O=C(c1cccc2ccccc12)N1CCCC(C(=O)N2CCc3ccccc3C2)C1 (stereo not given) | 5.83 |  |  | 696 mL/min/kg | 4470 mL/min/kg | 56.4 µg/mL (≈ 142 µM) |
| Cc1cc(-c2nccs2)nc(CC2CCNCC2)n1 | 20.1 |  |  | ≤ 4.74 mL/min/kg | 38.8 mL/min/kg | 36.5 µg/mL (≈ 133 µM) |
| CCOc1cccc(CNCCc2c[nH]c3ccccc23)c1 | 0.628 |  |  | 90.8 mL/min/kg | 1330 mL/min/kg | 73 µg/mL (≈ 248 µM) |
| Cn1ccnc1CN1CCN(Cc2ccc(F)cc2C#N)CC1 | 6.3 |  |  | ≤ 4.74 mL/min/kg | 446 mL/min/kg | 43.9 µg/mL (≈ 140 µM) |
| CCCCCCCCc1ccc(CC[C@](N)(CO)COP(=O)(O)O)cc1 |  |  |  | 7.61 mL/min/kg |  |  |

| SMILES | MDR1-MDCK efflux ratio | fraction unbound, human plasma | fraction unbound, rat plasma | intrinsic clearance, human liver microsomes | intrinsic clearance, rat liver microsomes | aqueous solubility |
| --- | --- | --- | --- | --- | --- | --- |
| Cc1nc(-c2cccc(C(N)=O)c2)sc1-c1ccc(F)cc1 |  |  |  | 18.1 mL/min/kg | 394 mL/min/kg |  |
| O=C(COc1ccc2ccc(=O)oc2c1)Nc1cccc(COCc2ccco2)c1 |  |  |  | 77.5 mL/min/kg | 425 mL/min/kg | 21.4 µg/mL (≈ 52.7 µM) |
| CC(C)N(CCCNC(=O)Nc1ccc(C(C)(C)C)cc1)C[C@@H]1O[C@@H](n2ccc3c(N)ncnc32)[C@H](O)[C@H]1O | 6.05 |  |  | 187 mL/min/kg | 1930 mL/min/kg |  |
| CC(C)OC(=O)N1CCC(Oc2ncnc3c2cnn3-c2ccc(S(C)(=O)=O)cc2F)CC1 | 1.61 |  |  |  |  |  |
| CCN(Cc1ccncc1)[C@@H]1CN(C(=O)c2ccccc2)C[C@H]1O | 37.3 |  |  | 45.2 mL/min/kg | 361 mL/min/kg | 115 µg/mL (≈ 354 µM) |
| CN(C)c1ccc(-c2ccc(COCc3cccs3)cc2)nn1 | 0.483 |  |  | 76.5 mL/min/kg | 410 mL/min/kg | 1.35 µg/mL (≈ 4.15 µM) |
| CCN(C(=O)N1CCC(OC2CCOCC2)CC1)C(C)C | 0.763 |  |  | 21.6 mL/min/kg | 155 mL/min/kg | 56.1 µg/mL (≈ 188 µM) |
| CC(C)n1ccc(C(=O)N2CCS(=O)(=O)C(C)(C)C2)n1 | 2.42 |  |  | ≤ 4.74 mL/min/kg | 33.7 mL/min/kg | 46.4 µg/mL (≈ 155 µM) |
| CC(C)(C)C(=O)N1CCC(CN2CCCC[C@@H]2CO)CC1 | 14.3 |  |  | ≤ 4.74 mL/min/kg | 29.4 mL/min/kg | 50.1 µg/mL (≈ 169 µM) |
| Cc1nc(CC2CCN(S(=O)(=O)c3cn(C)cn3)CC2)cc(NC2CCCC2)n1 | 37.4 |  |  | 9.96 mL/min/kg | 90.9 mL/min/kg | 59.5 µg/mL (≈ 142 µM) |
| CCOC(C)C(=O)N1CCC(n2c(=O)[nH]c3ccccc32)CC1 (stereo not given) |  |  |  | ≤ 4.74 mL/min/kg | 75.8 mL/min/kg | 64.7 µg/mL (≈ 204 µM) |
| Nc1nc2c3ccccc3oc2c2ccccc12 | 0.236 |  |  |  |  | 0.25 µg/mL (≈ 1.07 µM) |
| Cc1nc(C)n(-c2ccccc2NC(=O)c2cc(C#N)cn2C)n1 |  |  |  | 11.6 mL/min/kg | 163 mL/min/kg |  |
| CSc1ccccc1S(=O)(=O)NC1CCC(CN(C)C)CC1 (stereo not given) | 8.91 |  |  | ≤ 4.74 mL/min/kg | 440 mL/min/kg |  |
| Cc1csc2nc3n(c(=O)c12)CCNCC3 | 0.686 |  |  | 7.83 mL/min/kg | 228 mL/min/kg |  |
| Nc1nccc2ccc(-c3cccc(F)c3)cc12 |  |  |  | 209 mL/min/kg | 790 mL/min/kg | 3 µg/mL (≈ 12.6 µM) |

The next lines start with the values.

| MDR1-MDCK efflux ratio | fraction unbound, human plasma | fraction unbound, rat plasma | intrinsic clearance, human liver microsomes | intrinsic clearance, rat liver microsomes | aqueous solubility | SMILES |
| --- | --- | --- | --- | --- | --- | --- |
|  |  |  | 16.1 mL/min/kg | 62.4 mL/min/kg | 54 µg/mL (≈ 231 µM) | Nc1cnn(CC(=O)Nc2ccc(F)cc2)c1 |
|  |  |  |  |  | 1 µg/mL (≈ 3.43 µM) | CCn1nnc2cc(C(=O)Nc3cccc(C#N)c3)ccc21 |
|  |  |  | 13 mL/min/kg | 188 mL/min/kg |  | COCC(C)(C)CNC(=O)C1(Cn2cccn2)CC1 |
|  |  |  | 116 mL/min/kg | 2190 mL/min/kg | 27.4 µg/mL (≈ 81.7 µM) | C=C(C)COc1ccc(C(=O)NCCc2cn3ccccc3n2)cc1 |
| 23.9 |  |  | 18.9 mL/min/kg | 131 mL/min/kg | 52.1 µg/mL (≈ 169 µM) | O=C(NC[C@H]1COCc2nc3ccccc3n21)c1ccncc1 |
|  |  |  |  |  | 5.91 µg/mL (≈ 25.8 µM) | N#Cc1ccsc1NC(=O)c1ccccn1 |
| 6.9 | 0.0729 | 0.0603 | 101 mL/min/kg | 1210 mL/min/kg |  | Nc1ncnc2c1c(-c1cnc3[nH]ccc3c1)nn2C1CCCC1 |
| 0.476 |  |  | ≤ 4.74 mL/min/kg | ≤ 10.7 mL/min/kg | 38.1 µg/mL (≈ 159 µM) | Nc1ccc(C(=O)N2CCOCC2)c(Cl)c1 |
| 3.87 |  |  | 26.9 mL/min/kg | 468 mL/min/kg | 19.4 µg/mL (≈ 57.3 µM) | COc1ccc2nc(C)nc(N3CC(O)(c4ccc(F)cc4)C3)c2c1 |
|  |  |  | 42.9 mL/min/kg | 334 mL/min/kg |  | Oc1cc(F)ccc1-c1nc(-c2ccncc2)no1 |
| 0.67 |  |  | 51.8 mL/min/kg | 53.1 mL/min/kg | 13.3 µg/mL (≈ 45 µM) | CCc1ccccc1NC(=O)c1cc(C)nc2onc(C)c12 |
|  |  |  | 24.9 mL/min/kg | 600 mL/min/kg | 44.1 µg/mL (≈ 220 µM) | Oc1ccccc1NCc1ccccn1 |
| 0.657 |  |  | 16.2 mL/min/kg | 404 mL/min/kg | 36.8 µg/mL (≈ 134 µM) | Cc1cccc(NC(=O)CN(C)c2ncccc2F)n1 |
| 3.58 |  |  | ≤ 4.74 mL/min/kg | ≤ 10.7 mL/min/kg | 25.4 µg/mL (≈ 124 µM) | NCc1cccc(C(=O)N2CCCC2)c1 |
| 1.3 |  |  | 13.2 mL/min/kg | 138 mL/min/kg | 39.1 µg/mL (≈ 133 µM) | O=C(CSC1CCCC1)N1CCC(n2ccnn2)CC1 |
| 0.711 |  |  | 4.88 mL/min/kg | ≤ 10.7 mL/min/kg | 45 µg/mL (≈ 135 µM) | O=C(O)c1cccc(N2CCC(Oc3ccc(Cl)cc3)CC2)n1 |
| 1.57 |  |  | ≤ 4.74 mL/min/kg | 112 mL/min/kg | 36.7 µg/mL (≈ 143 µM) | Cc1nn(CCC#N)c(C)c1Oc1ccccc1O |
|  | 0.0501 | 0.0486 | 9.07 mL/min/kg | 49.8 mL/min/kg | 30.2 µg/mL (≈ 51.9 µM) | NCCN1CCN(C/C=C/C(=O)N2CCC[C@@H](n3nc(-c4ccc(Oc5ccccc5)cc4)c4c(N)ncnc43)C2)CC1 |
| 0.806 |  |  | 11.4 mL/min/kg | 270 mL/min/kg |  | COc1ccc(=O)n(Cc2noc3c2CCCC3)n1 |
| 39.4 |  |  | 9.73 mL/min/kg | 36.3 mL/min/kg |  | CCS(=O)(=O)N1CCN(c2ccc(Nc3ncc(C(N)=O)c(NC4CC4)n3)cc2)CC1 |
| 0.826 |  |  | 37.9 mL/min/kg | 315 mL/min/kg | 5.19 µg/mL (≈ 14.6 µM) | CC1CCN(CC(=O)Nc2nc(-c3c[nH]c4ccccc34)cs2)CC1 |
| 0.629 |  |  | 69.6 mL/min/kg | 497 mL/min/kg | 55.5 µg/mL (≈ 165 µM) | O=C(CCc1cc2ccccc2o1)N1CCN(c2cnccn2)CC1 |
| 60.6 |  |  | ≤ 4.74 mL/min/kg | 22.3 mL/min/kg | 75.6 µg/mL (≈ 201 µM) | Cc1ccc(C(=O)N2CCN(C(=O)NCC(=O)N3CCCC3)CC2)cc1F |
|  |  |  | 123 mL/min/kg | 1070 mL/min/kg | 28.4 µg/mL (≈ 110 µM) | CCNC(=O)c1ccnc(-c2ccc(F)c(C)c2)c1 |
| 2.15 |  |  |  |  | 0.2 µg/mL (≈ 0.526 µM) | COc1ccccc1N1CCN(c2nc(-c3ccc(F)cc3)cc(=O)[nH]2)CC1 |
